{
  "source": "ChEMBL document CHEMBL1201862",
  "about": "“PubChem BioAssay data set” (2004)",
  "assay_in_all_cases": "growth of human tumour cells (NCI), 48 h",
  "key": {"[1]": {"test_system": "786-0"}, "[2]": {"test_system": "OVCAR-4"}, "[3]": {"test_system": "RPMI-8226"}, "[4]": {"test_system": "SNB-75"}, "[5]": {"test_system": "Hs-578T"}, "[6]": {"test_system": "IGROV-1"}, "[7]": {"test_system": "SR"}, "[8]": {"test_system": "ACHN"}, "[9]": {"test_system": "CCRF-CEM"}, "[10]": {"test_system": "OVCAR-8"}, "[11]": {"test_system": "MDA-MB-231"}, "[12]": {"test_system": "MDA-MB-435"}, "[13]": {"test_system": "A549"}, "[14]": {"test_system": "SF-539"}, "[15]": {"test_system": "NCI-H522"}, "[16]": {"test_system": "CAKI-1"}, "[17]": {"test_system": "HOP-92"}, "[18]": {"test_system": "UO-31"}, "[19]": {"test_system": "HCC 2998"}, "[20]": {"test_system": "SK-MEL-5"}, "[21]": {"test_system": "HT-29"}, "[22]": {"test_system": "MDA-N"}, "[23]": {"test_system": "SK-OV-3"}, "[24]": {"test_system": "SF-295"}, "[25]": {"test_system": "K562"}, "[26]": {"test_system": "OVCAR-3"}, "[27]": {"test_system": "SK-MEL-2"}, "[28]": {"test_system": "LOX IMVI"}, "[29]": {"test_system": "A498"}, "[30]": {"test_system": "TK-10"}, "[31]": {"test_system": "SN12C"}, "[32]": {"test_system": "HOP-62"}, "[33]": {"test_system": "NCI-H460"}, "[34]": {"test_system": "BT-549"}, "[35]": {"test_system": "MOLT-4"}, "[36]": {"test_system": "KM12"}, "[37]": {"test_system": "M14"}, "[38]": {"test_system": "NCI-H226"}, "[39]": {"test_system": "UACC-257"}, "[40]": {"test_system": "HCT-15"}, "[41]": {"test_system": "HCT-116"}, "[42]": {"test_system": "SNB-19"}, "[43]": {"test_system": "T47D"}, "[44]": {"test_system": "OVCAR-5"}, "[45]": {"test_system": "EKVX"}, "[46]": {"test_system": "SW-620"}, "[47]": {"test_system": "NCI/ADR-RES"}, "[48]": {"test_system": "U-251"}, "[49]": {"test_system": "RXF 393"}, "[50]": {"test_system": "SK-MEL-28"}, "[51]": {"test_system": "SF-268"}, "[52]": {"test_system": "PC-3"}, "[53]": {"test_system": "NCI-H23"}, "[54]": {"test_system": "UACC-62"}, "[55]": {"test_system": "MCF7"}, "[56]": {"test_system": "HL-60"}, "[57]": {"test_system": "Malme-3M"}},
  "note": "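A five-concentration, 48-hour dose response in 96-well plates underlies each endpoint, interpolated linearly between surrounding concentrations. The concentration for 50% growth inhibition is given as GI50.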 Calls of active or inactive are those of the source. Rule as the data show it: active = GI50 up to about 1.1 µM and inactive = higher.",
  "data": [
    {"smiles": "Cc1cccc(C)c1NC(=O)C(=O)CC(=O)/C=C/c1ccccc1", "values": [
      {"measurement": "GI50", "setting": "[1]", "value": "> 100 µM (inactive)"},
      {"measurement": "GI50", "setting": "[2]", "value": "> 100 µM (inactive)"},
      {"measurement": "GI50", "setting": "[3]", "value": "> 100 µM (inactive)"},
      {"measurement": "GI50", "setting": "[4]", "value": "> 100 µM (inactive)"},
      {"measurement": "GI50", "setting": "[5]", "value": "> 100 µM (inactive)"},
      {"measurement": "GI50", "setting": "[6]", "value": "> 100 µM (inactive)"},
      {"measurement": "GI50", "setting": "[7]", "value": "> 10 µM (inactive)"},
      {"measurement": "GI50", "setting": "[8]", "value": "> 100 µM (inactive)"},
      {"measurement": "GI50", "setting": "[9]", "value": "> 100 µM (inactive)"},
      {"measurement": "GI50", "setting": "[10]", "value": "> 100 µM (inactive)"},
      {"measurement": "GI50", "setting": "[11]", "value": "> 100 µM (inactive)"},
      {"measurement": "GI50", "setting": "[12]", "value": "> 100 µM (inactive)"},
      {"measurement": "GI50", "setting": "[13]", "value": "> 100 µM (inactive)"},
      {"measurement": "GI50", "setting": "[14]", "value": "> 100 µM (inactive)"},
      {"measurement": "GI50", "setting": "[15]", "value": "> 100 µM (inactive)"},
      {"measurement": "GI50", "setting": "[16]", "value": "> 100 µM (inactive)"},
      {"measurement": "GI50", "setting": "[17]", "value": "> 100 µM (inactive)"},
      {"measurement": "GI50", "setting": "[18]", "value": "> 100 µM (inactive)"},
      {"measurement": "GI50", "setting": "[19]", "value": "> 100 µM (inactive)"},
      {"measurement": "GI50", "setting": "[20]", "value": "> 100 µM (inactive)"},
      {"measurement": "GI50", "setting": "[21]", "value": "> 100 µM (inactive)"},
      {"measurement": "GI50", "setting": "[22]", "value": "> 100 µM (inactive)"},
      {"measurement": "GI50", "setting": "[23]", "value": "> 100 µM (inactive)"},
      {"measurement": "GI50", "setting": "[24]", "value": "> 100 µM (inactive)"},
      {"measurement": "GI50", "setting": "[25]", "value": "> 100 µM (inactive)"},
      {"measurement": "GI50", "setting": "[26]", "value": "> 100 µM (inactive)"},
      {"measurement": "GI50", "setting": "[27]", "value": "> 100 µM (inactive)"},
      {"measurement": "GI50", "setting": "[28]", "value": "> 100 µM (inactive)"},
      {"measurement": "GI50", "setting": "[29]", "value": "> 100 µM (inactive)"},
      {"measurement": "GI50", "setting": "[30]", "value": "> 100 µM (inactive)"},
      {"measurement": "GI50", "setting": "[31]", "value": "> 100 µM (inactive)"},
      {"measurement": "GI50", "setting": "[32]", "value": "> 100 µM (inactive)"},
      {"measurement": "GI50", "setting": "[33]", "value": "73.6 µM (inactive)"},
      {"measurement": "GI50", "setting": "[34]", "value": "> 100 µM (inactive)"},
      {"measurement": "GI50", "setting": "[35]", "value": "> 100 µM (inactive)"},
      {"measurement": "GI50", "setting": "[36]", "value": "> 100 µM (inactive)"},
      {"measurement": "GI50", "setting": "[37]", "value": "> 100 µM (inactive)"},
      {"measurement": "GI50", "setting": "[38]", "value": "> 100 µM (inactive)"},
      {"measurement": "GI50", "setting": "[39]", "value": "> 100 µM (inactive)"},
      {"measurement": "GI50", "setting": "[40]", "value": "> 100", "unit": "µM"},
      {"measurement": "GI50", "setting": "[41]", "value": "> 100 µM (inactive)"},
      {"measurement": "GI50", "setting": "[42]", "value": "> 100 µM (inactive)"},
      {"measurement": "GI50", "setting": "[43]", "value": "> 100 µM (inactive)"},
      {"measurement": "GI50", "setting": "[44]", "value": "> 100 µM (inactive)"},
      {"measurement": "GI50", "setting": "[45]", "value": "> 100 µM (inactive)"},
      {"measurement": "GI50", "setting": "[46]", "value": "> 100 µM (inactive)"},
      {"measurement": "GI50", "setting": "[47]", "value": "> 100 µM (inactive)"},
      {"measurement": "GI50", "setting": "[48]", "value": "> 100 µM (inactive)"},
      {"measurement": "GI50", "setting": "[49]", "value": "> 100 µM (inactive)"},
      {"measurement": "GI50", "setting": "[50]", "value": "> 100 µM (inactive)"},
      {"measurement": "GI50", "setting": "[51]", "value": "> 100 µM (inactive)"},
      {"measurement": "GI50", "setting": "[52]", "value": "> 100 µM (inactive)"},
      {"measurement": "GI50", "setting": "[53]", "value": "> 100 µM (inactive)"},
      {"measurement": "GI50", "setting": "[54]", "value": "> 100 µM (inactive)"},
      {"measurement": "GI50", "setting": "[55]", "value": "> 100 µM (inactive)"},
      {"measurement": "GI50", "setting": "[56]", "value": "> 100 µM (inactive)"},
      {"measurement": "GI50", "setting": "[57]", "value": "> 100 µM (inactive)"}
    ]}
  ]
}
